Patent US20250032511A1, “[…] USE IN TREATMENT OF SUPER […] EPILEPTICUS” (MARINUS PHARMACEUTICALS, INC., priority 2023, published 2025)

Legend:
[1] = in contrast to allopregnanolone; cited from earlier work
SRSE = SRSE patients; anesthesia weaned until seizures started, then higher IV doses; cited from earlier work
[2] = tested on: super refractory status epilepticus; test: Case report: intravenous ganaxolone in a patient with super refractory status epilepticus (EEG, mental status); format: in vivo, human

Structure (SMILES): CC(=O)[C@H]1CC[C@H]2[C@@H]3CC[C@H]4C[C@](C)(O)CC[C@]4(C)[C@H]3CC[C@]12C [Ganaxolone, 3α-hydroxy-3β-methyl-5α-pregnan-20-one]
- oral bioavailability [1]: orally bioavailable
- clinical outcome of earlier higher-dose regimen (SRSE): showed early success, but seizures returned in some patients when ganaxolone serum levels were reduced
- frequency of remaining generalized periodic discharges (GPDs) on EEG in subsequent days ([2]; before GNX: 2-4 Hz GPDs, same patient and regimen): up to 1 Hz
- overall outcome of the case ([2]; late initiation of GNX (hospital day 52)): electrographic and clinical improvement
- EEG pattern during GNX infusion ([2]; person, SRSE, IV 20 mg bolus, 60 mg/hr first hour, then 42 mg/hr, total 7 days): marked improvement in the EEG pattern
- mental status ([2]; same patient, eye opening, attending, communicating with gestures and facial expressions): returned to their premorbid baseline
